Earlier results as cited in patent US20110281813A1, “METHOD OF TREATING C-KIT POSITIVE RELAPSED ACUTE MYELOID LEUKEMIA” (priority 2008, published 2011).
Structures can show the parent of a compound that is named as a salt.

Tested on: relapsed/ refractory AML

Question: For `Cc1ccc(NC(=O)c2ccc(CN3CCN(C)CC3)cc2)cc1Nc1nccc(-c2cccnc2)n1` [Imatinib mesylate, 4-(4-methylpiperazin-1-ylmethyl)-N-[4-methyl-3-(4-(pyridin-3-yl)pyrimidin-2-ylamino)phenyl]-benzamide], which single agent activity is on record?
Answer: has single agent activity
